IC50 and EC50 data for 14 compounds are collected here from patent publication US20260364080A1, “PYRAZOLO-PYRIMIDINONE COMPOUNDS FOR USE IN METHODS OF INHIBITING WEE1 A KINASE” (Acrivon Therapeutics, Inc., priority 2023, published 2026).

Like-named read-outs stand apart in the source and are kept apart here.

For assay [1], the target named is T1, Myt1 kinase (recombinant PMYT-1) (Homo sapiens, UniProt Q99640).
T1 construct: full length PMYT-1 was expressed by baculovirus in insect cells; purchased Invitrogen A30984; host or cells: insect cells (baculovirus)
T1 sequence (Q99640 1-499): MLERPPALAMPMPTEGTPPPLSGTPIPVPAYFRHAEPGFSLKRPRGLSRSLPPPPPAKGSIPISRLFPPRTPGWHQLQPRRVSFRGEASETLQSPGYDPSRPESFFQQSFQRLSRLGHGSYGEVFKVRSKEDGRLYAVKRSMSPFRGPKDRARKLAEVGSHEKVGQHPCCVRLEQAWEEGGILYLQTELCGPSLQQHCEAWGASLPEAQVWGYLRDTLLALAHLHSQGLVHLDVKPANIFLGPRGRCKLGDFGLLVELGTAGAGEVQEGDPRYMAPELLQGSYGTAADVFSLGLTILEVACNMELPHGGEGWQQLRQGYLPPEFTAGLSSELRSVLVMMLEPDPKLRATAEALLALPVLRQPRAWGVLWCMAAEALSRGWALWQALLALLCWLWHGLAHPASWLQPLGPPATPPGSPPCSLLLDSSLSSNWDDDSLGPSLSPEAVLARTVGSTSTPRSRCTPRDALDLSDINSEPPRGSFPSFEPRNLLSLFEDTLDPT
As to the kind of experiment: Myt1 kinase binding assay (LanthaScreen Eu Kinase Binding Assay). On the procedure: (§1) To calculate the emission ratio, the acceptor/tracer emission ([…]) was divided by the antibody/donor emission ([…]) and the average of duplicate measurement was used for calculations. Data plotting, analysis of binding, and curve fitting was done using Excel add-in XLfit version 5.5.0.5 (IDBS, Guildford, United Kingdom). […] “NT” means not tested.
We used a LanthaScreen Europium (Eu) Kinase Binding Assay to determine the binding affinities (IC50) of compounds to Myt1 kinase. […] “NT” designates that the compound was not tested in this assay.
On the technique in general: In TR-FRET formats the signal depends on donor and acceptor labels being close together.

Assay [2] concerns the target T2, Wee1A kinase (CDK1 Tyr15 phosphorylation in ACHN renal cell carcinoma cells) (Homo sapiens, UniProt P30291).
T2 construct: pCDK1 Tyr15 immunofluorescence read-out
As to the kind of experiment: High-content imaging of pCdk1 Y15, Wee1A kinase target engagement in ACHN cells. The format is cell-based. As for the experimental part:
Each of an ACHN renal cell carcinoma cell line (ATCC) and a DAOY medulloblastoma cell line, and an A427 lung cancer line were cultured in Minimum Essential Medium Eagle supplemented with 10% fetal calf serum (Sigma), 1% Penicillin-Streptomycin and 10 mM HEPES buffer (HyClone). Cell cultures were kept in a humidified incubator at 37 °C and 5% CO2. Cells were routinely tested for Mycoplasma contamination.
For target engagement assessment of Wee1A kinase inhibition, high-content imaging of ACHN renal cell carcinoma cells was used for quantification of CDK1 phosphorylated on tyrosine 15 by immunofluorescence (“IF”). 20,000 cells per well were seeded in tissue culture treated 96 well plates and treated with compounds at concentrations ranging from 7 to 5,000 nM or from 0.3 to 200 nM for 4h. Cells were fixated for 15 minutes in 4% paraformaldehyde solution, washed in PBS and permeabilized using 0.2% Triton X-100. Blocking was performed for 1 h at RT using Blocker FL Fluorescent Blocking Buffer (Thermo Scientific), thereafter cells were incubated with primary antibody (rabbit anti-pCDK1 Y^15, #4539, Cell Signaling Technology) at 4 °C ON. Alexa Fluor Plus 647 labelled goat anti-rabbit (A32733, Thermo Scientific) was used as secondary antibody. After washing in PBS, nuclei were stained with DAPI solution for 10 min at RT, protected from light. Cells were imaged using an ImageXpress Pico automated imaging system and CellReporter Xpress software (Molecular Devices). The percentage of cells with nuclear positivity for pCdk1 Y^15 compared to DMSO control was determined for each well and drug dose response curves and EC50 values were calculated and visualized using GraphPad Prism. Target engagement for Wee1A kinase can also be measured using the same AlphaLISA assay in OVCAR3 cells, an ovarian cancer cell line. NIH:OVCAR-3 (OVCAR3) cells are cultured in RPMI-1640 medium supplemented with 0.01 mg/ml insulin, 20% FBS, 1% Penicillin-Streptomycin and 10 mM HEPES buffer. 14,000 cells per well are seeded into 96 well tissue culture plates in full medium. Twenty-four hours post seeding, cells are treated with compound for 4 hours at concentrations ranging from 0.017 nM to 1000 nM.

Assay [3] has as its target T3, recombinant human Wee1A kinase (Homo sapiens, UniProt P30291).
T3 construct: full length Wee1 kinase was expressed by baculovirus in insect cells; purchased Invitrogen PV3817; host or cells: insect cells (baculovirus)
As to the kind of experiment: Wee1A kinase binding assay (LanthaScreen Eu time-resolved FRET). On the procedure: This time resolved-FRET binding assay was performed in white 384-well low volume plates (Greiner, cat #784075), at room temperature in kinase buffer A (KBA; Invitrogen cat #PV3189), consisting of 50 mM HEPES-NaOH (pH 7.5), 0.01% Brij-35, 10 mM MgCl2, and 1 mM EGTA. 5 μL of compound (diluted in reaction buffer, to 1% DMSO) were added to various wells in the plate, followed by 5 μL each of recombinant human Wee1A kinase (full length Wee1 kinase was expressed by baculovirus in insect cells using a N-terminal GST tag (MW: 99.1 kDa) (Invitrogen cat #PV3817) and LanthaScreen Eu-anti-GST antibody (Invitrogen, cat #PV5594). After this, 5 μL of kinase tracer 178 (Invitrogen, cat #PV5593) was added to the plate and the plate was incubated for 60 minutes at room temperature. The final assay conditions in each well were: 30 nM tracer 178, 5 nM Wee1A kinase and 2 nM Eu-labeled antibody in total assay volume of 15 μL. An Envision 2104 (Perkin-Elmer) Plate Reader with the following time-resolve fluorescence setting was used for performing LanthaScreen kinase binding assay. • Excitation 320 nm (30 nm bandpass) • Kinase Tracer Emission 665 nm (10 nm bandpass) • LanthaScreen Eu-anti-Tag Antibody Emission 615 nm (10 nm bandpass) • Dichroic Mirror Instrument dependent • Delay Time 100 μs • Integration Time 200 μs
as §1

Setting [4] is: 3 nM tracer 178, 2.5 nM PMYT-1, 1 nM Eu-labeled antibody, read-out: Myt1 kinase Binding IC50.
[5] abbreviates: 4 h treatment, nuclear positivity for pCdk1 Y15 vs DMSO control, read-out: CDK1 Tyr15 Phosphorylation EC50.
[6] abbreviates: 30 nM tracer 178, 5 nM Wee1A kinase, 2 nM Eu-labeled antibody, 60 minutes at room temperature, read-out: Wee1A kinase Binding IC50.

The IC50 is the concentration that inhibits the measured activity by half. One may read the EC50 as the concentration that produces a half-maximal response.

T2 sequence (P30291 whole entry): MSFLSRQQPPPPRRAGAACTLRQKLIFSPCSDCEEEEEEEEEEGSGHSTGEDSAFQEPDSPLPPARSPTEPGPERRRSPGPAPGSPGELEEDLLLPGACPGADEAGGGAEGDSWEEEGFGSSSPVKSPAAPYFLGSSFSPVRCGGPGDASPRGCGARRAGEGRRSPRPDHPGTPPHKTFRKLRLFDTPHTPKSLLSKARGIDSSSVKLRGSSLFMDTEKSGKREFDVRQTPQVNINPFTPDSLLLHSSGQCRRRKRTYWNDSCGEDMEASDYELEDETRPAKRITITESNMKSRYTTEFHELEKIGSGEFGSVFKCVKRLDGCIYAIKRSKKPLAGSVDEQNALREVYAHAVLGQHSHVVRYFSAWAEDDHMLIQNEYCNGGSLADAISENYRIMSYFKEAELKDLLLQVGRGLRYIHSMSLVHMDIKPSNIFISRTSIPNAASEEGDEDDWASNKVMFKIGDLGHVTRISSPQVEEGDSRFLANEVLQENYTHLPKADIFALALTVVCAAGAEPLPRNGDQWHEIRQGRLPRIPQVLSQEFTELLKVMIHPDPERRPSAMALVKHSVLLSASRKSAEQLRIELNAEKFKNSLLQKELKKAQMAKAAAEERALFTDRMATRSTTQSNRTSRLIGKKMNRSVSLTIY
T3 sequence (P30291 whole entry): as above

In the case of `CCn1c(=O)c2cnc(Nc3cnn(C)c3)nc2n1-c1cccc(OC2CCN(C)CC2)n1` [Compound 341, 2-ethyl-6-[(1-methyl-1H-pyrazol-4-yl)amino]-1-{6-[(1-methylpiperidin-4-yl)oxy]pyridin-2-yl}-1H,2H,3H-pyrazolo[3,4-d]pyrimidin-3-one], the half-maximal inhibitory concentration (IC50) in assay [1] (setting [4]) was 20 to 100 nM. The EC50 in assay [2] (setting [5]) was 100 to 500 nM.
With `C=CCn1c(=O)c2cnc(Nc3ccc4ncnn4c3)nc2n1-c1cccc(OC2CCNCC2)n1` [Compound 245, 2-allyl-6-(1,3,3a-triaza-5-indenylamino)-1-[6-(4-piperidyloxy)-2-pyridyl]-1,2-dihydro-3H-1,2,5,7-tetraazainden-3-one], the concentration for half-maximal inhibition (IC50) in assay [3] (setting [6]) was < 10 nM; in assay [1] (setting [4]) it was 20 to 100 nM. In addition, the EC50 in assay [2] (setting [5]) is > 1000 nM.
As to `C=CCn1c(=O)c2cnc(Nc3ccc(Cl)cc3)nc2n1-c1cccc(N(C)C2CCNCC2)n1` [Compound 156, 6-[(4-chlorophenyl)amino]-1-{6-[methyl(piperidin-4-yl)amino]pyridin-2-yl}-2-(prop-2-en-1-yl)-1H,2H,3H-pyrazolo[3,4-d]pyrimidin-3-one], the IC50 in assay [3] is < 10 nM; in assay [1] (Myt1 kinase Binding IC50, 3 nM tracer 178, 2.5 nM PMYT-1, 1 nM Eu-labeled antibody), 100 to 500 nM. In assay [2] (read-out: CDK1 Tyr15 Phosphorylation EC50, 4 h treatment, nuclear positivity for pCdk1 Y15 vs DMSO control), the EC50 is 500 to 1000 nM.
With `C=CCn1c(=O)c2cnc(Nc3ccc4ncnn4c3)nc2n1-c1cccc(OC2CCN(C)CC2)n1` [Compound 249, 2-allyl-6-(1,3,3a-triaza-5-indenylamino)-1-[6-(1-methyl-4-piperidyloxy)-2-pyridyl]-1,2-dihydro-3H-1,2,5,7-tetraazainden-3-one], the IC50 in assay [3] (setting [6]) is < 10 nM; in assay [1] (setting [4]) it was 20 to 100 nM. In addition, the EC50 in assay [2] (setting [5]) was in the range of 100 to 500 nM.
For the compound `C=CCn1c(=O)c2cnc(Nc3ccc4c(cnn4C)c3)nc2n1-c1cccc(O[C@@H]2CCNC2)n1` [Compound 101, 1-{6-[(R)-3-pyrrolidinyloxy]-2-pyridyl}-2-allyl-6-(1-methyl-1H-indazol-5-ylamino)-1,2-dihydro-3H-1,2,5,7-tetraazainden-3-one], the IC50 in assay [3] (setting [6]) is < 10 nM; in assay [1] (setting [4]) it was 100 to 500 nM. The EC50 in assay [2] (setting [5]) lay in the range of 100 to 500 nM.
Take `C=CCn1c(=O)c2cnc(Nc3ccc(Cl)cc3)nc2n1-c1cccc(NC2CCNCC2)n1` [Compound 124, 2-allyl-6-((4-chlorophenyl)amino)-1-(6-(piperidin-4-ylamino)pyridin-2-yl)-1,2-dihydro-3H-pyrazolo[3,4-d]pyrimidin-3-one]: the IC50 was < 10 nM in assay [3] (setting [6]) and 20 to 100 nM in assay [1] (setting [4]). Moreover, the EC50 in assay [2] (setting [5]) was 500 to 1000 nM.
Consider `C=CCn1c(=O)c2cnc(Nc3ccc4c(cnn4C)c3)nc2n1-c1cccc(N[C@@H]2CCN(C(C)C)C2)n1` [Compound 120, 6-[(1-methyl-1H-indazol-5-yl)amino]-2-(prop-2-en-1-yl)-1-(6-{[(3R)-1-(propan-2-yl)pyrrolidin-3-yl]amino}pyridin-2-yl)-1H,2H,3H-pyrazolo[3,4-d]pyrimidin-3-one], for which the values for the IC50 in assay [3] (setting [6]) and in assay [1] (setting [4]) were < 10 nM and 100 to 500 nM, respectively. Besides, the EC50 in assay [2] (setting [5]) was < 100 nM.
`C=CCn1c(=O)c2cnc(Nc3cnn(CCC)c3)nc2n1-c1cccc(OC2CCNCC2)n1` [Compound 179, 2-allyl-1-[6-(4-piperidyloxy)-2-pyridyl]-6-(1-propyl-4-pyrazolylamino)-1,2-dihydro-3H-1,2,5,7-tetraazainden-3-one]: the results for the IC50 in assay [3] (setting [6]) and in assay [1] (setting [4]) were < 10 nM and > 500 nM, respectively. The EC50 in assay [2] (setting [5]) was > 1000 nM.
As to `CCn1c(=O)c2cnc(Nc3ccc4c(cnn4C)c3)nc2n1-c1cccc(NC2CCNCC2)n1` [Compound 285, 2-ethyl-6-[(1-methyl-1H-indazol-5-yl)amino]-1-{6-[(piperidin-4-yl)amino]pyridin-2-yl}-1H,2H,3H-pyrazolo[3,4-d]pyrimidin-3-one], the IC50 in assay [3] (setting [6]) was < 10 nM; in assay [1] (setting [4]), 100 to 500 nM. Besides, the EC50 in assay [2] (setting [5]) is > 1000 nM.
As for `C=CCn1c(=O)c2cnc(Nc3ccc4nc(C)sc4c3)nc2n1-c1cccc(OC2CCNCC2)n1` [Compound 264, 2-allyl-6-(2-methyl-1,3-benzothiazol-6-ylamino)-1-[6-(4-piperidyloxy)-2-pyridyl]-1,2-dihydro-3H-1,2,5,7-tetraazainden-3-one], the results for the IC50 in assay [3] (setting [6]) and in assay [1] (setting [4]) were < 10 nM and < 20 nM, respectively. Also, the EC50 in assay [2] (setting [5]) is < 100 nM.
Taken in the same sequence, the figures for `CCn1c(=O)c2cnc(Nc3ccc(-c4cnn(C)c4)cc3)nc2n1-c1cccc(OC2CCNCC2)n1` [Compound 271, 2-ethyl-6-[p-(1-methyl-4-pyrazolyl)phenylamino]-1-[6-(4-piperidyloxy)-2-pyridyl]-1,2-dihydro-3H-1,2,5,7-tetraazainden-3-one] were < 10 nM, < 20 nM and 100 to 500 nM.
Consider `C=CCn1c(=O)c2cnc(Nc3ccc(Cl)cc3)nc2n1-c1cccc(N(C)[C@H]2CCCNC2)n1` [Compound 173, 1-{6-[N—(S)-3-piperidyl-N-methylamino]-2-pyridyl}-2-allyl-6-(p-chlorophenylamino)-1,2-dihydro-3H-1,2,5,7-tetraazainden-3-one], for which the IC50 in assay [3] (setting [6]) was 10 to 100 nM; in assay [1] (setting [4]) it was > 500 nM.
`C=CCn1c(=O)c2cnc(Nc3ccc(Cl)cc3)nc2n1-c1cccc(N(C)[C@@H]2CCCN(C)C2)n1` [Compound 163, (R)-2-allyl-6-((4-chlorophenyl)amino)-1-(6-(methyl(1-methylpiperidin-3-yl)amino)pyridin-2-yl)-1,2-dihydro-3H-pyrazolo[3,4-d]pyrimidin-3-one]: the IC50 is 10 to 100 nM in assay [3] (setting [6]) and > 500 nM in assay [1] (setting [4]).
Taken in the same sequence, the figures for `C=CCn1c(=O)c2cnc(Nc3ccc(Cl)cc3)nc2n1-c1cccc(N(C)[C@H]2CCCN(C)C2)n1` [Compound 164, 1-(6-{[(S)-1-methyl-3-piperidyl]-N-methylamino}-2-pyridyl)-2-allyl-6-(p-chlorophenylamino)-1,2-dihydro-3H-1,2,5,7-tetraazainden-3-one] were 10 to 100 nM and > 500 nM.
